Measurements from US20240417342A1, “METHOD FOR PRODUCING GRANULAR COMPOSITION CONTAINING GLUTATHIONE” (KANEKA CORPORATION, priority 2022, published 2024).
Read-outs that look alike come from different tables or passages of the source.

Assay: Solubility in water at 20° C.
Type: physicochemical
Procedure: Specifically, the percentage can be expressed as the number of grams of the nitrogen-containing fertilizer component that is soluble in 100 ml of water at 20° C.

solubility in water at 20° C. | solubility in water at 20° C. (% = g per 100 ml water) | Structure (SMILES)
0.5 g/100 mL | 0.5% | NC(=O)NC1NC(=O)NC1=O (stereo not drawn) [allantoin]
4.2 g/100 mL | 4.2% | N[C@@H](Cc1c[nH]cn1)C(=O)O [L-histidine]
4.0 g/100 mL | 4.0% | CC[C@H](C)[C@H](N)C(=O)O [L-isoleucine]
